From patent US20050054582A1, “Para-amino benzoic acids as integrin antagonists” (priority 2001, published 2005)
pIC50: −log10 of the molar value.

Columns and labels:
[1] = test system: adhesion of Ramos cells to VCAM-1; experiment: Adhesion of Ramos cells to immobilized VCAM-1 (domains 1-3); assay type: cell-based; settings: Homo sapiens, Ramos
Text: In Vitro Assay: Adhesion of Ramos Cells to Immobilized VCAM-1 (Domains 1-3) Preparation of VCAM-1 (Extracellular Domains 1-3)
Complementary DNA (cDNA) encoding 7-domain form of VCAM-1 (GenBank accession #M60335) was obtained using Rapid-Screen™ cDNA library panels (OriGene Technologies, Inc) at Takara Gene Analysis Center (Shiga, Japan). The primers used were 5′-CCAAGGCAGAGTACGCAAAC-3′ (sense) and 5′-TGGCAGGTATTATTAAGGAG-3′ (antisense). PCR amplification of the 3-domain VCAM-1 cDNA was perform using Pfu DNA polymerase (Stratagene) with the following sets of primers: (U-VCAMd1-3) 5′-CCATATGGTACCTGATCAATTTAAAATCGAGACCACCCCAGAA-3′; (L-VCAMdl-3) 5-CCATATAGCAATCCTAGGTCCAGGGGAGATCTCAACAGTAAA-3′. PCR cycle was 94° C. for 45 sec, 55° C. for 45 sec, 72° C. for 2 min, repeating 15 cycles. After the purification of the PCR product, the fragment was digested with KpnI-AvrII. The digested fragment was ligated into pBluescript IISK(−) (Strategene), which was linearized by digesting with KpnI-XhoI. The ligation was followed by transformation to a Dam/Dcm methylase-free E. coli strain SCS110 (Strategene) to create the donor plasmid […]. To direct VCAM-1 molecule into the insect cell secretory pathway, the VCAM-1 coding sequence was fused to signal peptide sequence of honeybee melittin. The resulting melittin-VCAM fusion was placed in correct orientation to the baculovirus polyhedrin promoter. Baculovirus transfer vector containing first 3-domain form VCAM-1 (pH10) was constructed by ligation of 0.9 kb fragment from AvrII/Klenow/BclI digests of pH7 into SalI/Klenow/BamHI digests of pMelBacB (Invitrogen). Recombinant baculovirus was generated by using Bac-N-Blue™ Transfection kit (Invitrogen) according to the manufacture's instruction. The recombinant virus was amplified by infection to High-Five™ insect cells for 5-6 days, and virus titer was determined by plaque assay.
High-Five™ insect cells were pelleted in a 225 ml conical tube by centrifugation at 1000 rpm for 5 min. After discarding the supernatant, the pellet was resuspended in 1.5×10^9 pfu (MOI=5) of high-titer virus solution, followed by incubation for 1.5 hours at room temperature. The cells were pelleted again and washed once in fresh Express Five™ serum free medium. The cells were pelleted again and finally, resuspended in 200 ml of fresh Express Five TM medium, transferred to a 1,000 ml shaker flask, and incubated in a shaker at 27° C., 130 rpm, for 48 hours before the culture supernatant was collected. The purification of 3-domain form of VCAM-1 from the culture supernatant was performed by one-step anion exchange chromatography. Protein concentration was determined by using Coomassie protein assay reagent (Pierce) according to the manufacture's instruction.
Preparation of VCAM-1 Coated Microtiter Plates
Recombinant human VCAM-1 (extracellular domains 1-3) was dissolved at 1.0 μg/ml in PBS. Each well of the microtiter plates (Nalge Nunc International, Fluoronunc Cert, 437958) was coated with 100 μl of substrate or for background control with buffer alone for 15 hours at 4 C. After discarding the substrate solution, the wells were blocked using 150 μl per well of block solution (Kirkegaard Perry Laboratories, 50-61-01) for 90 minutes. The plate was washed with wash buffer containing 24 mM Tris-HCl (pH 7.4), 137 mM NaCl, […] and 2 mM MnCl2 just before addition of the assay.
In Vitro Assay using Ramos Cells
Preparation of Fluorescence Labeled Ramos Cells:
Ramos cells (American Type Culture Collection, Clone CRL-1596) were cultured in RPMI 1640 medium (Nikken Bio Medical Laboratory, CM1101) supplemented with 10% fetal bovine serum (Hyclone, A-1119-L), 100 U/ml penicilin (Gibco BRL, 15140-122) and 100 μg/ml streptomycin (Gibco BRL, 15140-122) in a humidified incubator at 37° C. with 5% CO2. […]

Question: With `O=C(CN(CCc1ccccn1)C(=O)Cc1ccc2nc(Nc3ccccc3)oc2c1)Nc1ccc(C(=O)O)cc1` [Example 76, 4-({N-[(2-anilino-1,3-benzoxazol-6-yl)acetyl]-N-[2-(2-pyridinyl)ethyl]glycyl}amino)benzoic acid] as the compound, how does the pIC50 [1] read?
Answer: > 6.30

Question: What about the melting point of the same compound?
Answer: 252 to 253 °C

Question: With `O=C(CN(CCc1cccc(Cl)c1)C(=O)Cc1ccc2nc(Nc3ccccc3)oc2c1)Nc1ccc(C(=O)O)cc1` [Example 78] as the compound, how does the pIC50 [1] read?
Answer: 5.70 to 6.30

Question: And the melting point?
Answer: 162 to 165 °C

Question: With `O=C(CN(CCc1ccc(Cl)c(Cl)c1)C(=O)Cc1ccc2nc(Nc3ccccc3)oc2c1)Nc1ccc(C(=O)O)cc1` [Example 79] as the compound, how does the pIC50 [1] read?
Answer: 5.00 to 5.70

Question: And the melting point?
Answer: 170 to 171 °C

Question: With `O=C(CN(CCc1ccc(Oc2ccc(Cl)cc2)cc1)C(=O)Cc1ccc2nc(Nc3ccccc3)oc2c1)Nc1ccc(C(=O)O)cc1` [Example 80] as the compound, how does the pIC50 [1] read?
Answer: < 5.00

Question: And the melting point?
Answer: 156 to 158 °C

Question: With `Cc1ccccc1Nc1nc2ccc(CC(=O)NCC(=O)Nc3ccc(C(=O)O)cc3)cc2o1` [Example 81, 4-{[N-({2-[(2-methylphenyl)amino]-1,3-benzoxazol-6-yl}acetyl)glycyl]-amino}benzoic acid] as the compound, how does the pIC50 [1] read?
Answer: > 6.30

Question: And the melting point?
Answer: 267 to 268 °C

Question: With `Cc1ccccc1Nc1nc2ccc(CC(=O)N(CCc3ccccc3)CC(=O)Nc3ccc(C(=O)O)cc3)cc2o1` [Example 82, 4-{[N-({2-[(2-methylphenyl)amino]-1,3-benzoxazol-6-yl}acetyl)-N-(2-phenylethyl)glycyl]amino}benzoic acid] as the compound, how does the pIC50 [1] read?
Answer: > 6.30

Question: And the melting point?
Answer: 232 to 233 °C

Question: Which results are given for `Cc1ccccc1Nc1nc2ccc(CC(=O)N(CCc3ccccn3)CC(=O)Nc3ccc(C(=O)O)cc3)cc2o1` [Example 83, 4-({N-({2-[(2-methylphenyl)amino]-1,3-benzoxazol-6-yl}acetyl)-N-[2-(2-pyridinyl)ethyl]glycyl}amino)benzoic acid]?
Answer: pIC50 [1]: > 6.30; melting point: 175 to 176 °C
